Laboratory results taken from ChEMBL document CHEMBL1649216, “The diarylquinoline R207910 is bactericidal against Mycobacterium leprae in mice at low dose and administered intermittently” (Antimicrob Agents Chemother, 2009).
Calls of active or inactive are those of the source.

Tests used:
Format in all cases: functional, organism-based
[1] = system: Mycobacterium leprae; test: Antimycobacterial activity against Mycobacterium leprae infected in CBA/J mouse assessed as microbial growth inhibition at 1 mg/kg, po administered 5 times weekly during logarithmic multiplication from day 60 to day 150 post infection measured on day 152 post infection; set-up: dose 1 mg/kg
[2] = system: Mycobacterium leprae; test: Antimycobacterial activity against Mycobacterium leprae infected in CBA/J mouse assessed as microbial growth inhibition at 120 mg/kg, po administered once monthly during logarithmic multiplication from day 60 to day 150 post infection measured on day 302 to 365 post infection; set-up: dose 120 mg/kg
[3] = system: Mycobacterium leprae; test: Antimycobacterial activity against Mycobacterium leprae infected in CBA/J mouse assessed as microbial growth inhibition at 100 mg/kg, po administered once weekly during logarithmic multiplication from day 60 to day 150 post infection measured on day 302 to 365 post infection; set-up: dose 100 mg/kg
[4] = system: Mycobacterium leprae; test: Antimycobacterial activity against Mycobacterium leprae infected in CBA/J mouse assessed as microbial growth inhibition at 120 mg/kg, po administered once monthly during logarithmic multiplication from day 60 to day 150 post infection measured on day 228 post infection; set-up: dose 120 mg/kg
[5] = system: Mycobacterium leprae; test: Antimycobacterial activity against Mycobacterium leprae infected in CBA/J mouse assessed as microbial growth inhibition at 50 mg/kg, po administered once weekly during logarithmic multiplication from day 60 to day 150 post infection measured on day 302 to 365 post infection; set-up: dose 50 mg/kg
[6] = system: Mycobacterium leprae; test: Antimycobacterial activity against Mycobacterium leprae infected in CBA/J mouse assessed as microbial growth inhibition at 50 mg/kg, po administered once weekly during logarithmic multiplication from day 60 to day 150 post infection measured on day 152 post infection; set-up: dose 50 mg/kg
[7] = system: Mycobacterium leprae; test: Antimycobacterial activity against Mycobacterium leprae infected in CBA/J mouse assessed as microbial growth inhibition at 12.5 mg/kg, po administered 5 times weekly during logarithmic multiplication from day 60 to day 150 post infection measured on day 228 post infection; set-up: dose 12.5 mg/kg
[8] = system: Mycobacterium leprae; test: Antimycobacterial activity against Mycobacterium leprae infected in CBA/J mouse assessed as microbial growth inhibition at 1 mg/kg, po administered 5 times weekly during logarithmic multiplication from day 60 to day 150 post infection measured on day 228 post infection; set-up: dose 1 mg/kg
[9] = system: Mycobacterium leprae; test: Antimycobacterial activity against Mycobacterium leprae infected in CBA/J mouse assessed as microbial growth inhibition at 50 mg/kg, po administered once monthly during logarithmic multiplication from day 60 to day 150 post infection measured on day 302 to 365 post infection; set-up: dose 50 mg/kg
[10] = system: Mycobacterium leprae; test: Antimycobacterial activity against Mycobacterium leprae infected in CBA/J mouse assessed as microbial growth inhibition at 6 mg/kg, po administered 5 times weekly during logarithmic multiplication from day 60 to day 150 post infection measured on day 152 post infection; set-up: dose 6 mg/kg
[11] = system: Mycobacterium leprae; test: Antimycobacterial activity against Mycobacterium leprae infected in CBA/J mouse assessed as microbial growth inhibition at 25 mg/kg, po administered once weekly during logarithmic multiplication from day 60 to day 150 post infection measured on day 152 post infection; set-up: dose 25 mg/kg
[12] = system: Mycobacterium leprae; test: Antimycobacterial activity against Mycobacterium leprae infected in CBA/J mouse assessed as microbial growth inhibition at 100 mg/kg, po administered once weekly during logarithmic multiplication from day 60 to day 150 post infection measured on day 228 post infection; set-up: dose 100 mg/kg
[13] = system: Mycobacterium leprae; test: Antimycobacterial activity against Mycobacterium leprae infected in CBA/J mouse assessed as microbial growth inhibition at 100 mg/kg, po administered once monthly during logarithmic multiplication from day 60 to day 150 post infection measured on day 228 post infection; set-up: dose 100 mg/kg
[14] = system: Mycobacterium leprae; test: Antimycobacterial activity against Mycobacterium leprae infected in CBA/J mouse assessed as microbial growth inhibition at 30 mg/kg, po administered once weekly during logarithmic multiplication from day 60 to day 150 post infection measured on day 228 post infection; set-up: dose 30 mg/kg
[15] = system: Mycobacterium leprae; test: Antimycobacterial activity against Mycobacterium leprae infected in CBA/J mouse assessed as microbial growth inhibition at 30 mg/kg, po administered once weekly during logarithmic multiplication from day 60 to day 150 post infection measured on day 152 post infection; set-up: dose 30 mg/kg
[16] = system: Mycobacterium leprae; test: Antimycobacterial activity against Mycobacterium leprae infected in CBA/J mouse assessed as microbial growth inhibition at 3 mg/kg, po administered 5 times weekly during logarithmic multiplication from day 60 to day 150 post infection measured on day 228 post infection; set-up: dose 3 mg/kg
[17] = system: Mycobacterium leprae; test: Antimycobacterial activity against Mycobacterium leprae infected in CBA/J mouse assessed as microbial growth inhibition at 25 mg/kg, po administered once monthly during logarithmic multiplication from day 60 to day 150 post infection measured on day 228 post infection; set-up: dose 25 mg/kg
[18] = system: Mycobacterium leprae; test: Antimycobacterial activity against Mycobacterium leprae infected in CBA/J mouse assessed as microbial growth inhibition at 25 mg/kg, po administered 5 times weekly during logarithmic multiplication from day 60 to day 150 post infection measured on day 152 post infection; set-up: dose 25 mg/kg
[19] = system: Mycobacterium leprae; test: Antimycobacterial activity against Mycobacterium leprae infected in CBA/J mouse assessed as microbial growth inhibition at 100 mg/kg, po administered once weekly during logarithmic multiplication from day 60 to day 150 post infection measured on day 152 post infection; set-up: dose 100 mg/kg
[20] = system: Mycobacterium leprae; test: Antimycobacterial activity against Mycobacterium leprae infected in CBA/J mouse assessed as microbial growth inhibition at 25 mg/kg, po administered once monthly during logarithmic multiplication from day 60 to day 150 post infection measured on day 152 post infection; set-up: dose 25 mg/kg
[21] = system: Mycobacterium leprae; test: Antimycobacterial activity against Mycobacterium leprae infected in CBA/J mouse assessed as microbial growth inhibition at 50 mg/kg, po administered once monthly during logarithmic multiplication from day 60 to day 150 post infection measured on day 228 post infection; set-up: dose 50 mg/kg
[22] = system: Mycobacterium leprae; test: Antimycobacterial activity against Mycobacterium leprae infected in CBA/J mouse assessed as microbial growth inhibition at 30 mg/kg, po administered once weekly during logarithmic multiplication from day 60 to day 150 post infection measured on day 302 to 365 post infection; set-up: dose 30 mg/kg
[23] = system: Mycobacterium leprae; test: Antimycobacterial activity against Mycobacterium leprae infected in CBA/J mouse assessed as microbial growth inhibition at 100 mg/kg, po administered once monthly during logarithmic multiplication from day 60 to day 150 post infection measured on day 152 post infection; set-up: dose 100 mg/kg
[24] = system: Mycobacterium leprae; test: Antimycobacterial activity against Mycobacterium leprae infected in CBA/J mouse assessed as microbial growth inhibition at 12.5 mg/kg, po administered 5 times weekly during logarithmic multiplication from day 60 to day 150 post infection measured on day 152 post infection; set-up: dose 12.5 mg/kg
[25] = system: Mycobacterium leprae; test: Antimycobacterial activity against Mycobacterium leprae infected in CBA/J mouse assessed as microbial growth inhibition at 50 mg/kg, po administered once monthly during logarithmic multiplication from day 60 to day 150 post infection measured on day 152 post infection; set-up: dose 50 mg/kg
[26] = system: Mycobacterium leprae; test: Antimycobacterial activity against Mycobacterium leprae infected in CBA/J mouse assessed as microbial growth inhibition at 25 mg/kg, po administered once weekly during logarithmic multiplication from day 60 to day 150 post infection measured on day 228 post infection; set-up: dose 25 mg/kg
[27] = system: Mycobacterium leprae; test: Antimycobacterial activity against Mycobacterium leprae infected in CBA/J mouse assessed as microbial growth inhibition at 25 mg/kg, po administered 5 times weekly during logarithmic multiplication from day 60 to day 150 post infection measured on day 228 post infection; set-up: dose 25 mg/kg
[28] = system: Mycobacterium leprae; test: Antimycobacterial activity against Mycobacterium leprae infected in CBA/J mouse assessed as microbial growth inhibition at 3 mg/kg, po administered 5 times weekly during logarithmic multiplication from day 60 to day 150 post infection measured on day 152 post infection; set-up: dose 3 mg/kg
[29] = system: Mycobacterium leprae; test: Antimycobacterial activity against Mycobacterium leprae infected in CBA/J mouse assessed as microbial growth inhibition at 6 mg/kg, po administered 5 times weekly during logarithmic multiplication from day 60 to day 150 post infection measured on day 228 post infection; set-up: dose 6 mg/kg
[30] = system: Mycobacterium leprae; test: Antimycobacterial activity against Mycobacterium leprae infected in CBA/J mouse assessed as microbial growth inhibition at 120 mg/kg, po administered once monthly during logarithmic multiplication from day 60 to day 150 post infection measured on day 152 post infection; set-up: dose 120 mg/kg
[31] = system: Mycobacterium leprae; test: Antimycobacterial activity against Mycobacterium leprae infected in CBA/J mouse assessed as microbial growth inhibition at 50 mg/kg, po administered once weekly during logarithmic multiplication from day 60 to day 150 post infection measured on day 228 post infection; set-up: dose 50 mg/kg

Measured: growth inhibition (GI)

COc1nc2ccc(Br)cc2cc1[C@@H](c1ccccc1)[C@@](O)(CCN(C)C)c1cccc2ccccc12
active: all assays above
